Consider ten compounds from ChEMBL document CHEMBL1201862, “PubChem BioAssay data set” (2004).

Among the test systems are HOP-92; HOP-62; OVCAR-8; OVCAR-3; UACC-257; SF-295; SW-620; SN12C; SK-MEL-28; EKVX; HCT-15; HT-29; RPMI-8226; HL-60; MOLT-4; CCRF-CEM; NCI-H522.
What all share (experiment): DTP human tumour cell line panel, 48 h

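Compound exposure: 48 hours, 5 concentrations, 96-well plates. GI50: concentration for 50% inhibition of growth.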 Calls of active or inactive are those of the source. Rule as the data show it: active = GI50 up to about 1.1 µM and inactive = higher.

The term GI50 denotes the concentration at which growth is held to half of that of the control. For the compound `CCCCCC(=O)OCCOCCOCCOCCOCCOCc1ccccc1`, the GI50 in the assay with HOP-92, in the assay with HOP-62, with OVCAR-8, with OVCAR-3, with UACC-257 and with SF-295 was > 100 µM (inactive) in each case. In addition, the GI50 in the assay on SW-620 is > 100 µM (inactive); in the assay with SN12C it was > 100 µM (inactive); with SK-MEL-28, > 100 µM (inactive); in the assay on EKVX it was > 100 µM (inactive); in the assay on HCT-15 it was > 100 µM.
For `COC(=O)c1ccc(C(=O)OC)c2nc3cc(C)ccc3nc12`, the GI50 with HOP-92, in the assay with HT-29, with HOP-62, in the assay with OVCAR-8, in the assay with RPMI-8226 and with OVCAR-3 was > 100 µM (inactive) throughout. The GI50 in the assay on UACC-257, in the assay with SF-295, with HL-60, in the assay with SW-620, in the assay with SN12C and in the assay on SK-MEL-28 was > 100 µM (inactive) in each case. In addition, the GI50 was > 100 µM (inactive) with EKVX, > 100 µM (inactive) with MOLT-4, > 100 µM (inactive) in the assay with CCRF-CEM and > 100 µM in the assay on HCT-15.
As for `CCOc1ccc(NC(=O)CCC(=O)NN)cc1`, the GI50 with HOP-92, in the assay with HT-29, in the assay with HOP-62, in the assay on OVCAR-8, in the assay with RPMI-8226 and with OVCAR-3 was > 100 µM (inactive) in each case. For the same compound, the GI50 with UACC-257 was > 100 µM (inactive); in the assay on SF-295, > 100 µM (inactive); with HL-60 it was > 100 µM (inactive); in the assay on SW-620, > 100 µM (inactive); with SN12C, 94 µM (inactive); in the assay with NCI-H522, > 100 µM (inactive). Besides, the GI50 in the assay on SK-MEL-28 is > 100 µM (inactive); with EKVX, > 100 µM (inactive); with MOLT-4 it was > 100 µM (inactive); in the assay on CCRF-CEM, > 100 µM (inactive); in the assay on HCT-15 it was 68.7 µM.
As for `Cc1cc(Cl)ccc1NC(=O)CCCC(=O)C1CCC/C1=N\NC(=O)CC#N` (centres undefined), the GI50 was > 100 µM (inactive) in the assay on HOP-92; > 100 µM (inactive) in the assay with HT-29; > 100 µM (inactive) in the assay with OVCAR-8; 75.3 µM (inactive) in the assay on RPMI-8226; > 100 µM (inactive) in the assay on OVCAR-3; > 100 µM (inactive) in the assay on UACC-257. For the same compound, the GI50 with SF-295, with HL-60, with SW-620, in the assay on SN12C, in the assay with NCI-H522 and with SK-MEL-28 was > 100 µM (inactive) each time. The GI50 in the assay with EKVX was > 100 µM (inactive); in the assay on MOLT-4, > 100 µM (inactive); in the assay on CCRF-CEM, > 100 µM (inactive); in the assay with HCT-15, > 100 µM.
Turning to `c1ccc2c(c1)Sc1ccccc1N2C1CN2CCC1CC2` (centres undefined), the GI50 in the assay with HT-29 is 17.3 µM (inactive); in the assay on HOP-62 it was 12.9 µM (inactive); in the assay with OVCAR-8, 16.4 µM (inactive); in the assay with RPMI-8226, 23.1 µM (inactive); in the assay on OVCAR-3 it was 15.8 µM (inactive); in the assay on UACC-257, 15.5 µM (inactive). The GI50 with SF-295 is 15.3 µM (inactive); with HL-60 it was 14.9 µM (inactive); with SW-620 it was 16.4 µM (inactive); in the assay with SN12C it was 14.2 µM (inactive); in the assay on NCI-H522 it was 18.8 µM (inactive); in the assay with SK-MEL-28, 15.8 µM (inactive). The GI50 was 13 µM (inactive) in the assay with EKVX, 12.8 µM (inactive) with MOLT-4, 16.5 µM (inactive) with CCRF-CEM and 16.8 µM in the assay on HCT-15.
In the case of `CC1CC(c2ccccc2)=Nc2ccccc2S1(=O)=O` (centres undefined), the GI50 is 27.9 µM (inactive) with HOP-92; 20.3 µM (inactive) with HOP-62; 21.1 µM (inactive) in the assay with OVCAR-8; 2.16 µM (inactive) in the assay with RPMI-8226; 18.5 µM (inactive) in the assay with OVCAR-3; 11.6 µM (inactive) in the assay with UACC-257. Further, the GI50 with SF-295 was 20.2 µM (inactive); in the assay on HL-60 it was 21 µM (inactive); in the assay on SW-620 it was 16.2 µM (inactive); in the assay on SN12C, 16.6 µM (inactive); in the assay with NCI-H522, 17.3 µM (inactive); in the assay on SK-MEL-28, 16.3 µM (inactive). The GI50 is 20.4 µM (inactive) with EKVX, 16.8 µM (inactive) with MOLT-4, 19.7 µM (inactive) in the assay on CCRF-CEM and 24.1 µM in the assay on HCT-15.
With `Cc1cc2c(c(C(=O)O)c1C)-c1cccc(Cl)c1C2=O`, the GI50 in the assay on HT-29, with HOP-62, in the assay on OVCAR-8, in the assay with RPMI-8226, with OVCAR-3 and in the assay on UACC-257 was > 100 µM (inactive) in each case. Further, the GI50 in the assay on SF-295, in the assay on SW-620, with SN12C, with NCI-H522, with SK-MEL-28 and in the assay with EKVX was > 100 µM (inactive) throughout. Besides, the GI50 was > 100 µM (inactive) in the assay with MOLT-4, > 100 µM (inactive) with CCRF-CEM and > 100 µM in the assay with HCT-15.
In the case of `C=CCN(N=O)C(=O)N(CCC)CCCC(NC(C)=O)C(=O)NCc1ccccc1` (centres undefined), the GI50 in the assay on HT-29, with HOP-62, in the assay on OVCAR-8, with RPMI-8226, in the assay with OVCAR-3 and with UACC-257 was > 100 µM (inactive) in each case. In addition, the GI50 in the assay on SF-295, in the assay with HL-60, with SW-620, in the assay on SN12C, with NCI-H522 and with SK-MEL-28 was > 100 µM (inactive) throughout. In addition, the GI50 was > 100 µM (inactive) with EKVX, > 100 µM (inactive) in the assay on MOLT-4, > 100 µM (inactive) with CCRF-CEM and > 100 µM in the assay with HCT-15.
With `O=C(/C=C1/NC(=O)CS1)Nc1ccccc1`, the GI50 in the assay with HOP-92, with HT-29, in the assay with HOP-62, in the assay on OVCAR-8, in the assay on RPMI-8226 and in the assay with OVCAR-3 was > 100 µM (inactive) throughout. For the same compound, the GI50 in the assay with SF-295, with HL-60, with SW-620, in the assay on SN12C, in the assay with NCI-H522 and in the assay with SK-MEL-28 was > 100 µM (inactive) each time. The GI50 in the assay on EKVX, in the assay with MOLT-4 and in the assay with CCRF-CEM was > 100 µM (inactive) each time.
Turning to `CCOc1ccc(/N=C/c2cccc3cccnc23)cc1`, the GI50 with HOP-92 is > 100 µM (inactive); with HT-29 it was > 100 µM (inactive); in the assay on HOP-62 it was > 100 µM (inactive); in the assay with OVCAR-8, > 100 µM (inactive); in the assay on RPMI-8226, 30.3 µM (inactive); with OVCAR-3, > 100 µM (inactive). The GI50 is > 100 µM (inactive) in the assay with UACC-257; > 100 µM (inactive) with SF-295; 25.6 µM (inactive) with HL-60; 50.5 µM (inactive) with SW-620; > 100 µM (inactive) in the assay with SN12C; > 100 µM (inactive) in the assay on SK-MEL-28. Besides, the GI50 is > 100 µM (inactive) with EKVX, 45.3 µM (inactive) with MOLT-4, 62.5 µM (inactive) with CCRF-CEM and 38.2 µM in the assay on HCT-15.
